Results from patent US7091185B2, “Periodic antimicrobial peptides” (Dow Global Technologies Inc., priority 2003, dated 2006).
Where no end group is shown, it is not given here.

B1: KFAK KFAK KFAK KFAK KFAK KFAK KFAK KFAK KFAK KFAK KFAK KFAK KFAK KFAK KFAK KFAK KFAK (peptide)
chain: KFAKKFAKKFAKKFAKKFAKKFAKKFAKKFAKKFAKKFAKKFAKKFAKKFAKKFAKKFAKKFAKKFAK
modifications: Periodic Peptide
B2: KFK KFK KFK KFK KFK KFK KFK KFK KFK KFK KFK KFK KFK KFK KFK KFK KFK KFK KFK KFK KFK (peptide)
chain: KFKKFKKFKKFKKFKKFKKFKKFKKFKKFKKFKKFKKFKKFKKFKKFKKFKKFKKFKKFKKFK
modifications: Periodic Peptide
B3: FKA FKA FKA FKA FKA FKA FKA FKA FKA FKA FKA FKA FKA FKA FKA FKA FKA FKA FKA FKA FKA (peptide)
chain: FKAFKAFKAFKAFKAFKAFKAFKAFKAFKAFKAFKAFKAFKAFKAFKAFKAFKAFKAFKAFKA
modifications: Periodic Peptide

Columns and labels:
P. aeruginosa ATCC 15442 = assay: HMARQ biocidal kill activity; assay type: cell-based; settings: P. aeruginosa ATCC 15442 (gram−)
Procedure: (§1) Biocide efficacy protocols were improved by reducing sample size, organizing the test material into an array format, implementing most probable number (MPN) quantitation and using multi-channel liquid handling equipment. We call the new method “high-throughput microanalysis and rapid quantitation” or “HMARQ.” HMARQ is directly applicable to current industrial efficacy tests such as multi-cycle preservation challenge or time course disinfection tests.
(§2) HMARQ is performed in a high throughput plate, such as 96-well microtiter plates. Typical sample volumes have been reduced down to 200 to 300 μL, but can be reduced further if desired. In these samples, no more than 10% of the total volume will be composed of the biocide and organism solution, and all non-matrix additions are normalized for all samples.
(§3) The sample matrix is first inoculated with the desired concentration of microorganisms. Inoculated sample matrix is then added to the 96-well assay block containing the biocide(s) under study. Each sample block contains biocide treated samples and untreated control samples (lacking biocide). Once the samples are prepared, the entire block of samples is mixed by vortexing until each sample is homogenous. In general, the study starts once mixing is complete, and samples are removed as required for the analysis. When Kill Time testing (rate of biocide activity) is performed, the microorganisms are added after biocide addition to the samples, allowing for rapid mixing and analysis.
(§4) Bacterial concentration (CFU/mL) is determined using the most probable number method (MPN). The contaminated solution is serially diluted until the “no growth” endpoint is reached. The endpoint represents the MPN and is expressed in units of the bacterial concentration. A serial 1:10 dilution will yield a bacterial concentration resolution of 1 log and the log reduction is determined by comparing the concentration of organisms in a treated sample to the concentration of organisms in untreated samples. For example, if a sample requires four 1:10 dilutions before bacterial growth is lost then the MPN for bacterial concentration in the sample is less than or equal to 1×10^4 CFU/mL (1E4). […] This method of enumeration is generally applicable to all non-filamentous microorganisms.
(§5) Media included Tryptic Soy Broth (TSB) for bacteria and Sabouraud Dextrose Broth (SDB) for fungi. These are available commercially and prepared according to the manufacturers instructions. Indicator medium was TSB/R for bacteria and SDB/R for fungi. These were made by addition of 50 μM filter sterilized Resazurin to the sterilized and cooled medium. Tryptic Soy agar plates (TSA) and SDA slants were used to provide inoculant for bacterial and fungal cultures. The indicator dye appeared pink or white when bacterial growth was present.
(§6) Using the HMARQ test described above, periodic peptides were generated and tested for Kill Activity. In this experiment, a broader range of peptidezs were tested for activity. Units are expressed as ppm (μg/mL) needed for 3.5 log kill at 15 min or 24 hour and the results are shown below.

Staph. aureus ATCC 6538 = assay: HMARQ biocidal kill activity; assay type: cell-based; settings: Staph. aureus ATCC 6538 (gram+)
Procedure: as §1, §2, §3, §4, §5, §6

E. coli ATCC 2592 = settings: ATCC 2592
Procedure: (§7) The bacteria tested were P. aeruginosa American Type Culture Collection Number (ATCC) 10145, E. coli ATCC 2592, and S. aureus (methicillin reseistant) ATTC 33591.
(§8) All experiments were compared to bacterial growth under optimal growth conditions (37° C., pH 7.0, absence of additional salt, growth media—referred to as standard growth conditions). In each plate, no growth control (media alone), positive growth control (bacteria with no test sample), positive antimicrobial controls (agents with known antimicrobial activity) and test compounds were tested.
(§9) The plates were incubated overnight, and the relative percent growth determined by optical density at 620 nm (OD620) using a […] […] PLUS™. […] All samples were tested in duplicate and each assay was repeated at least twice. […] IC50 and MIC are reported in μg/ml.

P. aeruginosa ATCC 10145 = settings: ATCC 10145
Procedure: as §7, §8, §9

[1] = system: S. aureus (methicillin resistant) ATCC 33591; settings: ATCC 33591
Procedure: as §7, §8, §9

C. albicans 10231 = assay type: cell-based; settings: 10231
Procedure: (§10) The MIC and IC50 values were determined by a broth microdilution method according to guidelines of the National Committee for Clinical Laboratory Standard as follows: In 96-well tissue culture plates, a fixed volume of bacterial suspension in 2× broth (as defined below) was added to the mixtures or individual compounds dispensed at concentrations varying from 1,000 to 1 μg/ml derived from serial two-fold dilutions in sterile water. The bacteria tested were P. aeruginosa American Type Culture Collection Number (ATCC) 10145, E. coli ATCC 2592, and S. aureus (methicillin reseistant) ATTC 33591.
(§11) The plates were incubated overnight, and the relative percent growth determined by optical density at 620 nm (OD620) using a TITERTEK MULTISKAN PLUS™. […] IC50 values were calculated using a sigmoidal curve fitting software program (GRAPHPAD,™ ISI Software,™ San Diego, Calif.). All samples were tested in duplicate and each assay was repeated at least twice. In the following table, KFAK is the repeat unit and multimers of KFAK were tested. IC50 and MIC are reported in μg/ml.
(§12) Because the antibacterial activity of the periodic peptides was so promising, further experiments were performed to determine if the periodic peptides also had antifungal activity. The experimental design was similar to that above, with accommodation made for fungal growth requirements, including the use of Sabouraud Dextrose Broth (SDB) and Sabouraud Dextrose Agar (SDA) slants.

Cr. Neoformans 32045 = assay type: cell-based
Procedure: as §10, §11, §12

Red blood cell toxicity = assay type: cell-based; settings: red blood cells (RBC); RBCs; concentration required for 50% toxicity; read-out: TX50
Red blood cells (RBC) = assay: Red blood cell toxicity; assay type: cell-based

Molecule	ppm needed for 3.5 log kill at 15 min (P. aeruginosa ATCC 15442) [ppm]	ppm needed for 3.5 log kill at 24 hr (P. aeruginosa ATCC 15442) [ppm]	ppm needed for 3.5 log kill at 15 min (Staph. aureus ATCC 6538) [ppm]	ppm needed for 3.5 log kill at 24 hr (Staph. aureus ATCC 6538) [ppm]	other results
FKA FKA FKA FKA FKA FKA FKA FKA FKA FKA FKA FKA FKA FKA FKA FKA FKA (FKAFKAFKAFKAFKAFKAFKAFKAFKAFKAFKAFKAFKAFKAFKAFKAFKA; Periodic Peptide) [FKA(17)]	16	16	4	8	
FKLRAKIKVRLRAKIKL [D4E1, FKLRAKIKVRLRAKIKL, reference compound]					IC50 (E. coli ATCC 2592): 3.3 µg/mL; MIC (E. coli ATCC 2592): 8 to 16 µg/mL; IC50 (P. aeruginosa ATCC 10145): 6.2 µg/mL; MIC (P. aeruginosa ATCC 10145): 8 to 16 µg/mL; IC50 [1]: 6.3 µg/mL; MIC [1]: 32 to 62 µg/mL; IC50 (C. albicans 10231): 70.6 µg/mL; MIC (C. albicans 10231): 80 to 125 µg/mL; IC50 (Cr. Neoformans 32045): 1.8 µg/mL; MIC (Cr. Neoformans 32045): 8 to 16 µg/mL; HC50 at 24 h (Red blood cell toxicity): 134 µg/mL; % kill at 250 μg/ml (Red blood cells (RBC)): 77.2%
H-KFAKKFAKKAAKKAAK-OH [PBF16b, KFAKKFAKKAAKKAAK, reference compound]					IC50 (P. aeruginosa ATCC 10145): >250 µg/mL; MIC (P. aeruginosa ATCC 10145): >250 µg/mL
H-KFAKKFAKKFAKKAAK-OH [PBF16a, KFAKKFAKKFAKKAAK, reference compound]					IC50 (P. aeruginosa ATCC 10145): >250 µg/mL; MIC (P. aeruginosa ATCC 10145): >250 µg/mL
KFAKKAAKKFAKKAAK [PBF16c, KFAKKAAKKFAKKAAK, reference compound]					IC50 (P. aeruginosa ATCC 10145): >250 µg/mL; MIC (P. aeruginosa ATCC 10145): >250 µg/mL
KFK KFK KFK KFK KFK KFK KFK KFK KFK KFK KFK KFK (KFKKFKKFKKFKKFKKFKKFKKFKKFKKFKKFKKFK; Periodic Peptide) [KFK(12)]	4	8	>500	250	
KFK KFK KFK KFK KFK KFK KFK KFK KFK KFK KFK KFK KFK KFK KFK KFK (KFKKFKKFKKFKKFKKFKKFKKFKKFKKFKKFKKFKKFKKFKKFKKFK; Periodic Peptide) [KFK(16)]	16	31	>500	16	
KGK KGK KGK KGK KGK KGK KGK KGK KGK KGK KGK (KGKKGKKGKKGKKGKKGKKGKKGKKGKKGKKGK; Periodic Peptide) [KGK(11)]	8	8	>500	8	
KGK KGK KGK KGK KGK KGK KGK KGK KGK KGK KGK KGK KGK KGK KGK (KGKKGKKGKKGKKGKKGKKGKKGKKGKKGKKGKKGKKGKKGKKGK; Periodic Peptide) [KGK(15)]	4	16	125	62	
KTK KTK KTK KTK KTK KTK KTK (KTKKTKKTKKTKKTKKTKKTK; Periodic Peptide) [KTK(7)]	31	31	250	8	
LK LK LK LK LK (LKLKLKLKLK; Periodic Peptide) [LK(5)]	62	62	>500	31	
LK LK LK LK LK LK LK LK LK LK LK LK LK LK LK LK LK LK (LKLKLKLKLKLKLKLKLKLKLKLKLKLKLKLKLKLK; Periodic Peptide) [LK(18)]	16	31	8	16	
LK LK LK LK LK LK LK LK LK LK LK LK LK LK LK LK LK LK LK LK LK LK LK LK (LKLKLKLKLKLKLKLKLKLKLKLKLKLKLKLKLKLKLKLKLKLKLKLK; Periodic Peptide) [LK(24)]	16	63	>500	>500	
B1	16	250	250	500	
B2	31	63	>500	250	
B3	8	16	4	125	
